According to publication PMC6027146, “Synthesis and Structure-Activity Relationships of (−)-cis-N-Normetazocine-Based LP1 Derivatives” (Pharmaceuticals, 2018):

Assays:
[1] = molecular target: T1, rat-MOR (Rattus norvegicus, UniProt P33535); test: Radioligand competition binding, [3H]-DPN, HEK293 membranes, MOR; details: [3H]-DPN displacement; means ± SEM of three experiments in duplicate; read-out: Ki (μM) ± SEM MOR
T1 construct: expressed in transfected cells
Experimental: (§1) All synthesized compounds were tested in vitro by radioligand competition binding using [^3H]-diprenorphine ([^3H]-DPN) to measure the affinity for opioid receptor subtypes in membranes from HEK293 cells stably expressing either MOR, DOR, or KOR, as previously described.
(§2) Confluent monolayers of HEK293 (human embryonic kidney 293) cells stably expressing rat-MOR, rat-DOR, or human-KOR were harvested, collected by centrifugation at 1500 rpm for 5 min, and washed once with phosphate-buffered saline (PBS) at pH 7.5. Membranes from cell pellets were carried out as described by Georgoussi and Zioudrou (1993) and Papakonstantinou et al. (2015). Briefly, cell pellets were resuspended in ice-cold membrane buffer (10 mM Tris-HCl, pH 7.5 and 0.1 mM EDTA), homogenized, and centrifuged at 2,000 g for 3 min at 4 °C. Supernatants were further centrifuged at 45,000 rpm for 30 min at 4 °C. The membrane pellet was resuspended in ice-cold membrane buffer at a protein concentration of approximately 1 mg/mL and stored in aliquots at −70 °C. Protein concentration was determined according to Bradford assay.
(§3) In the experiments designed to define compound affinity and selectivity for MOR, DOR, and KOR, membranes expressing each of these opioid receptors ([…]) were incubated at 30 °C for 45 min in buffer containing 50 mM Tris-HCl, pH 7.5, 100 mM NaCl, and 10 mM MgCl2 as described by Georgoussi et al. […] The ability of compounds 10–16 to displace [^3H]-DPN (3.75 nM) binding to the opioid receptors was assessed as described by Morou And Georgoussi (2005). Non-specific binding was measured in the presence of […] Naloxone. The reaction was stopped by rapid filtration and three washes in ice-cold 50 mM Tris-HCl, pH 7.4, through GF/C filters (Whatman, Maidstone, UK) using an automated cell harvester (Brandel Inc., Gaithersburg, MD, USA). The radioactivity was measured by liquid scintillation counting (Liquid Scintillation Analyzer, Packard).
(§4) Analysis of the binding data was performed using the Origin 7.5 software (OriginLab Corporation, Northampton, MA, USA). In calcium mobilization experiments, data were analyzed by non-linear curve fitting equation, using GraphPad 5.0 software. […] Ligand efficacy was expressed as intrinsic activity (α), calculated as the ratio between the Emax of the ligand and that of the respective standards. Calcium mobilization data were expressed as FIU (fluorescence intensity units) in percent, over the baseline. Agonist potencies are given as pEC50 (the negative logarithm to base 10 of the molar concentration of an agonist that produces 50% of the maximal possible effect, Emax). Concentration response curves to agonists were fitted with the following equation: Effect = baseline + (Emax − baseline)/(1+10^(LogEC50 − X) ∗ HillSlope) where X is the agonist concentration.

[2] = molecular target: T2, rat-DOR (Rattus norvegicus, UniProt P33533); test: Radioligand competition binding, [3H]-DPN, HEK293 membranes, DOR; details: [3H]-DPN displacement; means ± SEM of three experiments in duplicate; read-out: Ki (μM) ± SEM DOR
T2 construct: expressed in transfected cells
Experimental: as §1, §2, §3, §4

[3] = system: cells expressing the GαqG66Di5 chimeric protein, but not DOR; test: Calcium mobilization in cells expressing the GαqG66Di5 chimeric protein, but not DOR; type: cell-based; details: up to 10 μM; data not shown
Excerpt: The LP1 functional profile at DOR, previously in vitro detected by adenylyl cyclase, and the [^35S]GTPγS binding assays was controversial. […] Similar findings with DOR spontaneous activity and effects of DOR antagonists have been previously described. This effect was reversed at higher LP1 concentrations. These [^35S]GTPγS binding results reveal the role of LP1 as a DOR antagonist ligand. […] The DOR antagonist profile of LP1 was also detected in vivo by rat tail flick test. […] The remaining LP1 derivatives 11–16 were not able to stimulate calcium mobilization in CHO^DOR cells stably expressing the GαqG66Di5 protein. […]
CHO cells, expressing human opioid receptors and the Gαqi5 protein, and CHODOR, expressing the GαqG66Di5 protein, were maintained in culture medium consisting of Dulbecco minimum essential medium (DMEM) and Ham F-12 (1:1) (50/50) supplemented with 10% fetal calf serum (FCS), L-glutamine (2 mM), geneticin (200 μg/mL; G418), hygromycin B (100 μg/mL) at 37 °C in 5% CO2 humidified air. […] After placing both plates (cell culture and compound plate) into the FlexStation II (Molecular Device, Union City, San Jose, CA 94587, USA), fluorescence changes were measured at room temperature. […] Maximum change in fluorescence, expressed in percent of baseline fluorescence, was used to determine agonist response.

[4] = system: DOR; design: method as in PMID 20599386; details: less potent than DPDPE; cited from earlier work
[5] = molecular target: human-KOR (Homo sapiens, UniProt P41145); test: Radioligand competition binding, [3H]-DPN, HEK293 membranes, KOR; design: expressed in transfected cells; details: [3H]-DPN displacement; means ± SEM of three experiments in duplicate; read-out: Ki (μM) ± SEM KOR
Experimental: as §1, §2, §3, §4

## C[C@H]1[C@H]2Cc3ccc(O)cc3[C@]1(C)CCN2CCC(=O)Nc1ccccc1 [LP1, 3-[(2R,6R,11R)-8-hydroxy-6,11-dimethyl-1,4,5,6-tetrahydro-2,6-methano-3-benzazocin-3(2H)-yl]-N-phenylpropanamide, reference compound]
[1]
  Ki: 0.049 ± 0.015 µM
[2]
  Ki: 0.033 ± 0.02 µM
[3]
  calcium mobilization in cells without DOR: completely inactive
[4]
  potency in inhibiting cAMP accumulation relative to DPDPE (fold less potent): approximately 85 fold
[5]
  Ki: 7.5 ± 0.015 µM
